Results on 10 compounds are retold here after paper PMC3229538, “Inhibition of G Protein-Activated Inwardly Rectifying K^+ Channels by Different Classes of Antidepressants” (PLoS ONE, 2011).

The subject of one series is GIRK channels. As to conditions: cited from earlier work.
The next series has as its target T1, GIRK1/4 channels (Mus musculus, UniProt P48545+P63250).
T1 construct: expressed in transfected cells; host or cells: Xenopus laevis oocytes injected with in vitro transcribed mRNA
T1 sequence (P63250 1-501): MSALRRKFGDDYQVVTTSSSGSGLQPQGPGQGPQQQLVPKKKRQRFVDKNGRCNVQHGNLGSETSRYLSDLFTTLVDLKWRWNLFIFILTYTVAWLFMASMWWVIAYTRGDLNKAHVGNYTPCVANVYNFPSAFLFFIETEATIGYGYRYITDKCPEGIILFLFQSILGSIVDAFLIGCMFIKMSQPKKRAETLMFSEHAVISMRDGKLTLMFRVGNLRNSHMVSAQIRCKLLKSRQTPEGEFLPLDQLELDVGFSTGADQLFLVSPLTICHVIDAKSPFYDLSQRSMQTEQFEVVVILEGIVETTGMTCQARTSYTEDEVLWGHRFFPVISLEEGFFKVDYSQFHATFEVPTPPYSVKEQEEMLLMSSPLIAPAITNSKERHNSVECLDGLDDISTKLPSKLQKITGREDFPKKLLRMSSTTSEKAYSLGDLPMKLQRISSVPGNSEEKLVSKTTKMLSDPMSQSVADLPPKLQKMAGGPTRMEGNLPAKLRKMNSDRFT
T1 sequence (P48545 1-419): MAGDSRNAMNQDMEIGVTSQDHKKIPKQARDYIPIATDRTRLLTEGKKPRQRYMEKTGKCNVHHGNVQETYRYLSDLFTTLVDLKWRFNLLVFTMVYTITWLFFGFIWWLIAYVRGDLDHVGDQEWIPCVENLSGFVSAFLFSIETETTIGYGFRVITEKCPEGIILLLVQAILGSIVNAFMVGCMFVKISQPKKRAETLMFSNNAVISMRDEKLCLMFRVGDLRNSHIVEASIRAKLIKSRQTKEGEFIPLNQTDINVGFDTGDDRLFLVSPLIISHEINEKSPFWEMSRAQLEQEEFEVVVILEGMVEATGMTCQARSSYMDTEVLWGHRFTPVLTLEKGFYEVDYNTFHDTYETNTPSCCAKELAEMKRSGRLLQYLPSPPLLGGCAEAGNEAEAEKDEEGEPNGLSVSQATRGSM
The series can be described thus: Inhibition of basal GIRK currents, Xenopus oocyte expression assay, two-electrode voltage clamp. The series is classed as cell-based. As to conditions: for inhibition at 100 µM: read-out: % inhibition of basal GIRK currents. How it is done: (§1) Microelectrodes were filled with 3 M KCl. […] The data are expressed as mean ± SEM, and n is the number of oocytes tested. The statistical analysis of differences between groups was performed using paired t-test, one-way analysis of variance (ANOVA), or two-way ANOVA followed by the Tukey-Kramer post hoc test. Values of P<0.05 were considered statistically significant.
A general note: Two-electrode voltage clamp is typically applied to oocytes expressing channels or transporters.

The next series deals with T2, GIRK1/2 channels (Mus musculus, UniProt P48542+P63250).
T2 construct: expressed in transfected cells; host or cells: Xenopus laevis oocytes injected with in vitro transcribed mRNA
T2 sequence (P63250 1-501): T1 sequence (P63250 1-501)
T2 sequence (P48542 1-425): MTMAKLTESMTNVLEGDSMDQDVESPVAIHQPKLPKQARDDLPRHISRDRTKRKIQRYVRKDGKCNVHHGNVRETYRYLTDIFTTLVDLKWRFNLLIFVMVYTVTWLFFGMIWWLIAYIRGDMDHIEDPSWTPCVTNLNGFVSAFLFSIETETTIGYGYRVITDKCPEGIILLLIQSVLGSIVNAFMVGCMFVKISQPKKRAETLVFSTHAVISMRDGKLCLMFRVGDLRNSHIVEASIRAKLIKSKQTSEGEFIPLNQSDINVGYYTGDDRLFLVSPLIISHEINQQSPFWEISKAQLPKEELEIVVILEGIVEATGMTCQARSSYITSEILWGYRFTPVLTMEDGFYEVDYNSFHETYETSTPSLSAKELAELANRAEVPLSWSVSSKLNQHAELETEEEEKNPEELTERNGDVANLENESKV
The series is described as above. The format is cell-based. As to conditions: for inhibition at 100 µM: read-out: % inhibition of basal GIRK currents. How it is done:
as §1

The conditions of series [1]: cited from earlier work.
The target in series [2] is GIRK1/2 channels activated by ethanol (Mus musculus, UniProt P48542+P63250). As to conditions: 100 mM.
Description: These plasmids were linearized by digestion with the appropriate enzymes as described previously [45], [46]. The specific mRNAs were synthesized in vitro using the mMESSAGE mMACHINE™ In Vitro Transcription Kit (Ambion, Austin, TX, USA).
The conditions of series [3]: cited from earlier work. This is another data set of the same source.
Series [4] can be described thus: pKa of secondary amine group and protonation. As to conditions: pH 7.4. The format is physicochemical.
The subject of the next series is T3, Kir2.1 channels.
T3 construct: expressed in transfected cells; host or cells: Xenopus laevis oocytes injected with in vitro transcribed mRNA
The series can be described thus: Effect on Kir2.1 currents, Xenopus oocyte expression assay. The format is cell-based, mouse. As to conditions: 300 µM, hK solution. The procedure:
Microelectrodes were filled with 3 M KCl. […]. The data are expressed as mean ± SEM, and n is the number of oocytes tested. The statistical analysis of differences between groups was performed using paired t-test, one-way analysis of variance (ANOVA), or two-way ANOVA followed by the Tukey-Kramer post hoc test. Values of P<0.05 were considered statistically significant.

The conditions of series [5]: ref Data Sheets of Pfizer and Eli Lilly and Company; cited from earlier work.
The subject of series [6] is intrinsic oocyte channels. The series can be described thus: Current responses in uninjected Xenopus oocytes. The format is cell-based, Xenopus laevis. How it is done:
Louis, MO, USA). […] Microelectrodes were filled with 3 M KCl. […] For the analysis of concentration-response relationships, the data were fitted to a standard logistic equation [51] using KaleidaGraph (Synergy Software, Reading, PA, USA). […] The data are expressed as mean ± SEM, and n is the number of oocytes tested. The statistical analysis of differences between groups was performed using paired t-test, one-way analysis of variance (ANOVA), or two-way ANOVA followed by the Tukey-Kramer post hoc test. Values of P<0.05 were considered statistically significant.

Series [7] addresses T4, GIRK1/2 channels activated by GTPγS (Mus musculus, UniProt P48542+P63250).
T4 construct: expressed in transfected cells; host or cells: Xenopus laevis oocytes injected with in vitro transcribed mRNA
T4 sequence (P63250 1-501): T1 sequence (P63250 1-501)
T4 sequence (P48542 1-425): T2 sequence (P48542 1-425)
As to the kind of experiment: Inhibition of total GIRK currents (GTPγS-induced and basal) in GTPγS-injected oocytes. The format is cell-based. As to conditions: injection of 13.8 nl of 100 mM into oocyte. The source says: Microelectrodes were filled with 3 M KCl. […] GIRK channels are activated by various Gi/o-protein-coupled receptors through the direct action of G-protein βγ subunits released from the heterotrimeric G-protein complex, [33].

[8] abbreviates: 100 µM, K4 solution 4 mM K+, −10 mV.
[9] abbreviates: basal GIRK currents, −70 mV, hK solution 96 mM K+.
[10] abbreviates: concentration reducing basal GIRK currents by 25%.
The mark [11] stands for this setting: concentration reducing basal GIRK currents by 50%.
Where [12] appears, read: read-out: % max (percentage inhibition of basal GIRK currents at the highest concentration tested).

Structures are written as SMILES. Counter-ions that a name gives are not always drawn. Like-named read-outs stand apart in the source and are kept apart here. A value given as a limit tells only on which side of the number the result lay.

In the case of `CCN(CC)C(=O)C1(c2ccccc2)CC1CN` (stereo not drawn) [milnacipran], the “effects on GIRK channels” value in the series with GIRK channels was “little effects”.
Take `CCc1nn(CCCN2CCN(c3cccc(Cl)c3)CC2)c(=O)n1CCOc1ccccc1` [nefazodone, nefazodone hydrochloride]: the inhibition at 100 µM at GIRK1/4 channels (100 µM, −70 mV, hK solution) was 30.3 ± 3.4%; on GIRK1/2 channels (100 µM, −70 mV, hK solution), 35.9 ± 3.5%. In [1], the “concentrations in cases of overdose” value is not above 11.7 µM.
On to `CCO` [ethanol, Ethanol], for which the “induced GIRK currents” value in series [2] amounted to 344.2±40.3 nA.
For `CN1CCN2c3ncccc3Cc3ccccc3C2C1` (stereo not drawn) [mirtazapine, Mirtazapine], the inhibition at 100 µM is 12.1 ± 2.4% on GIRK1/4 channels (100 µM, −70 mV, hK solution) and 17.6 ± 3.5% at GIRK1/2 channels (100 µM, −70 mV, hK solution). For the same compound, in series [3], the “brain levels compared with blood levels” value is recorded as 3.2 fold.
As to `CN[C@H]1CC[C@@H](c2ccc(Cl)c(Cl)c2)c2ccccc21` [sertraline, Sertraline hydrochloride], the protonated form entry in series [4] was “approximately 96.9%”. The “% change of the Ba2+-sensitive current components” value in the series on Kir2.1 channels was “less than 2%”. Also, in series [5], the “pKa of secondary amine group” value is listed as 8.9. For the same compound, the current response in [6] (setting [8]) was 3.0±0.9 nA; in series [6] (300 µM, hK solution, −70 mV), 2.0±2.0 nA.
With `CN1CCN2c3ccccc3Cc3ccccc3C2C1` (stereo not drawn) [mianserin, mianserin hydrochloride], the inhibition at 100 µM at GIRK1/4 channels (100 µM, −70 mV, hK solution) came to 18.8 ± 1.3%; on GIRK1/2 channels (100 µM, −70 mV, hK solution) it was 24.1 ± 5.5%. Besides, the “brain levels compared with blood levels” value in [3] is 12.1 fold. For the same compound, in series [1], the “concentrations in cases of overdose” value is listed as not above 18.9 µM.
For the compound `COc1ccc(C(CN(C)C)C2(O)CCCCC2)cc1` (stereo not drawn) [venlafaxine, Venlafaxine hydrochloride], the inhibition at 100 µM came to 22.8 ± 3.2% on GIRK1/4 channels and 19.4 ± 4.6% at GIRK1/2 channels. In series [3], the “brain levels compared with blood levels” value is listed as 4.9 fold. The “concentrations in cases of overdose” value in series [1] is not above 302.8 µM.
Consider `CNCC[C@H](Oc1cccc2ccccc12)c1cccs1` [duloxetine, duloxetine hydrochloride], for which, in [4], the protonated form is listed as approximately 98.9%. Further, the figures for the “n H (Hill coefficient)” value on GIRK1/4 channels (basal GIRK currents) and on GIRK1/2 channels (basal GIRK currents) were 0.97±0.07 and 0.94±0.06, respectively. The EC50 (in general, the concentration that produces a half-maximal response) at GIRK1/4 channels (setting [9]) came out at 17 ± 1.3 µM; on GIRK1/2 channels (setting [9]), 14.9 ± 0.4 µM. Moreover, the IC25 (in general, the point of the concentration-response curve where the effect stands at 25%) against GIRK1/4 channels (setting [10]) stood at 12.6 ± 1.2 µM; at GIRK1/2 channels (setting [10]), 6.6 ± 0.6 µM. Further, the values for the IC50 against GIRK1/4 channels (setting [11]) and on GIRK1/2 channels (setting [11]) were 124 ± 34.3 µM and 28.3 ± 2.5 µM, respectively. Moreover, the figures for the inhibition at 100 µM at GIRK1/4 channels and on GIRK1/2 channels were 49.7 ± 2.2% and 65.6 ± 1%, respectively. For the same compound, the inhibition at 300 µM on GIRK1/4 channels (setting [12]) worked out at 54.1 ± 1.5%; at GIRK1/2 channels (setting [12]), 72.2 ± 1.1%. Moreover, the “effect on outward GIRK currents” value on GIRK1/2 channels (30 µM, K4 solution 4 mM K+, holding potential −10 mV) is “reversibly reduced”. Besides, the “voltage dependence of GIRK current inhibition at the end of the voltage pulses” value at GIRK1/2 channels (30 µM, −120 to −40 mV) is on record as “voltage-dependent”. Moreover, the “effect of extracellular pH on percentage inhibition of GIRK channels” value on GIRK1/2 channels (extracellular pH 7.4 and 9.0) is reported as “not significantly affected”. In [5], the “pKa of secondary amine group” value is 9.34. Further, in series [6] (setting [8]), the current response came out at 0±0 nA. Moreover, in series [3], the “brain levels compared with blood levels” value is 15 fold. In addition, the “concentrations in cases of overdose” value in [1] is listed as not above 8.4 µM.
For the compound `[Ba+2]` [Ba^2+], the current response in series [6] (3 mM, K4 solution 4 mM K+, −10 mV) worked out at 7.6±1.3 nA; in series [6] (3 mM, hK solution, −70 mV), 3.1±1.7 nA. In [6] (3 mM, after GTPγS injection), the “current response in GTPγS-injected uninjected oocytes” value turned out to be 3.9±2.1 nA.
As for `Nc1nc2c(ncn2[C@@H]2O[C@H](COP(=O)([O-])OP(=O)([O-])OP([O-])([O-])=S)[C@@H](O)[C@H]2O)c(=O)[nH]1.[Li+].[Li+].[Li+].[Li+]` [GTPγS, Li4-guanosine-5′-O-(3-thiotriphosphate)], in [7], the “increase of inward currents, steady-state level” value is recorded as 516.0±123.7 nA.
